Results reported in article PMC11059093 (Frontiers in Chemistry, 2024).

How the values were obtained:
[1] = Oxygen radical absorbance capacity (ORAC-FL) assay; conditions: compounds 5 µM, mean of n = 3 ± SD
Procedure: The solution of 2,2′-azobis- (amidinopropane) dihydrochloride (AAPH) was prepared to a final concentration of 40 mM. The mixture of the tested compounds (20 µL) and FL (120 μL; 70 nM) was pre-incubated for 10 min at 37°C, 60 µL of the AAPH solution was added. The fluorescence was recorded every minute for 120 min (excitation, 485 nm; emission, 520 nm). The antioxidant curves (fluorescence versus time) were normalized to the curve of the blank.
Where f0 is the initial fluorescence reading at 0 min and fi is the fluorescence reading at time i. The net AUC was calculated by the expression: AUCsample—AUCblank. Regression equations between net AUC and Trolox concentration were calculated. ORAC-FL value of the tested compound expressed as Trolox equivalents.

[2] = Parallel artificial membrane permeability assay for the blood-brain barrier (PAMPA-BBB); conditions: for Papp / P e: PAMPA; for pred (predicted BBB permeation): classified from PAMPA-BBB Pe; for P e: can cross the blood-brain barrier
[3] = target: T1, Aβ1–42 (Homo sapiens, UniProt P05067); test: Inhibition of self-mediated Aβ1–42 aggregation, thioflavin T fluorescence assay; type: biochemical; conditions: ThT assay, compounds 20 μM, mean of n = 3 ± SD
T1 construct: Aβ1−42 (Sigma-Aldrich) was dissolved in NH4OH (1% v/v) to get a stock solution; purchased Sigma-Aldrich

[4] = 13 commercial drugs for validation, literature value; ref Bibl a; cited from earlier work
[5] = in vitro; conditions: PAMPA
[6] = tested on: SH-SY5Y; test: Cytotoxicity assay on SH-SY5Y cells; type: cell-based
Procedure: (§1) To further investigate the bioactivity of the compounds, cytotoxicity was evaluated on SH-SY5Y and BV2 cell lines (Figures 2A, B).
(§2) FIGURE 2 Cytotoxicity assay of 6b and 6c on SH-SY5Y (A) and BV2 (B). Protective effect of 6b and 6c against H2O2 induced SH-SY5Y oxidative stress (C).

[7] = Metal-chelating study by UV spectrophotometry; type: physicochemical; conditions: for Metal-chelating property: 50 µM compound with Cu^2+, Zn^2+, Fe^2+ or Fe^3+ (50 µM), HEPES pH 7.4, UV-vis; for Inflection point, concentration ratio of Cu^2+ to compound: 50 µM compound, 0–100 µM copper ion, inflection point method
Procedure: To further evaluate multi-target anti-AD potential, the metal-chelating properties of 6b and 6c were determined by UV spectrophotometry ([Geng et al., 2012]; [Lu et al., 2013]; [Hu et al., 2019]). […] While co-incubated with Fe^3+ or Fe^2+, the intensity at 255 nm was in different degrees decreased. The same result occurred for 6c. […] Next, the chelation ratios of 6b and 6c to Cu^2+ were measured and calculated using the inflection point method (Figures 3B, D). The inflection point appears when the concentration ratio of compound Cu^2+ to 6b or 6c is 0.5, so it can be inferred that the chelation ratio of compound 6b and 6c to Cu^2+ is 2:1.
6b and 6c (50 µM) were incubated with CuSO4, FeSO4, FeCl3, or ZnCl2 (50 µM) in buffer (20 mM HEPES, 150 mM NaCl, pH 7.4) for 30 min, and the absorption spectras were recorded at room temperature. For the stoichiometry of the compound–Cu^2+ complex, a fixed amount of 6b and 6c (50 µM) was mixed with growing amounts of copper ion (0–100 µM), and the difference UV−vis spectra were examined to investigate the ratio of ligand/metal in the complex.

[8] = tested on: BV2; test: Cytotoxicity assay on BV2 cells; type: cell-based; conditions: BV2, 20 μM
Procedure: as §1, §2

[9] = tested on: SH-SY5Y; test: Hydrogen peroxide induced oxidative stress (ROS, DCFH-DA probe) in SH-SY5Y cells; type: cell-based; conditions: SH-SY5Y treated with 400 μM hydrogen peroxide for 12 h
Source text: as §2
The effect of 6b and 6c on the oxidative stress of SH-SY5H cells induced by hydrogen peroxide was investigated using DCFH-DA as the fluorescent probe ([Xu et al., 2021]).

[10] = target: T2, Cu^2+-induced Aβ1-42 aggregation (Homo sapiens, UniProt P05067); test: Cu^2+-induced Aβ1-42 aggregation, thioflavin T fluorometric detection; type: biochemical; conditions: ThT, compound stock 150 μM; for Disaggregation of Cu^2+-induced Aβ1-42 aggregation: Figure 4A; for Inhibition of Cu^2+-induced Aβ1-42 aggregation: Figure 4B
T2 construct: Aβ1-42 (Sigma-Aldrich A9810, 20 μM) was dissolved in HEPES buffer; purchased Sigma-Aldrich A9810
Procedure: To further detect the ability of compounds 6b, CQ and MT to disaggregate or inhibit the Cu^2+-induced Aβ1-42 aggregation, we conducted thioflavin T fluorometric detection ([Hu et al., 2019]).
Detection of the compounds for disaggregated and inhibitory effects on Cu^2+ induced Aβ1-42 aggregation. Aβ1-42 (Sigma-Aldrich A9810, 20 μM) was dissolved in HEPES buffer (pH = 6.6, containing 1% ammonium hydroxide). 10 μL of Aβ1-42 was previously incubated with or without Cu^2+ at 37°C for 3 days to pre-fibrillation. 10 μL of 6b, CQ, and MT (150 μM, in DMSO) were incubated before or after the pre-fibrillation of Aβ1-42 at 37°C for 1 day. After incubation, 170 μL of thioflavin T (5 μM, in 50 mM glycine-NaOH buffer) was added to mix well. After incubation for 5 min, the Aβ1-42 aggregation was detected by Microplate Reader (HITACHI, F-4700) with excitation/emission at 450/485 nm.

T1 sequence (P05067 672-713 limits assumed): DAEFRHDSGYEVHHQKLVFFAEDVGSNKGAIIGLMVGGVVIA
T2 sequence (P05067 672-713 limits assumed): as above

In the case of COc1ccc2[nH]cc(CC(=O)NCc3ccc(O)c4ncccc34)c2c1 [Compound 11b, N-((8-hydroxyquinolin-5-yl)methyl)-2-(5-methoxy-1H-indol-3-yl)acetamide], the ORAC [1] is reported as 3.58 ± 0.12 Trolox equivalents, the Papp [2] is reported as 1.35 ± 0.25 ×10⁻⁶ cm/s and the “pred (predicted BBB permeation)” value [2] is reported as “CNS− (Compounds of low BBB permeation (CNS -) Pe<1.8)”. For the same compound, the inhibition at 20 µM [3] was 34.9 ± 2.91%.
In the case of CN1C(C(=O)Nc2ccccn2)=C(O)c2ccccc2S1(=O)=O [piroxicam], the “Pe, Bibl” value [4] is listed as 2.5 ×10⁻⁶ cm/s.
With Oc1cccc2ccc(CNCc3c[nH]c4ccccc34)nc12 [Compound 3d, 2-((((1H-indol-3-yl)methyl)amino)methyl)quinolin-8-ol] the ORAC [1] was 2.60 ± 0.20 Trolox equivalents, the Papp [2] was 5.09 ± 1.32 ×10⁻⁶ cm/s and the “P e” value [2] was over 4.7. For the same compound, the “pred (predicted BBB permeation)” value [2] was “CNS+ (Compounds of high BBB permeation (CNS+) Pe>4.7)” and the inhibition at 20 µM [3] was 20.5 ± 4.72%.
With Oc1ccc2[nH]cc(CCNCc3ccc4cccc(O)c4n3)c2c1 [Compound 3c, 2-(((2-(5-hydroxy-1H-indol-3-yl)ethyl)amino)methyl)quinolin-8-ol] the ORAC [1] was 4.47 ± 0.18 Trolox equivalents, the Papp [5] was 4.81 ± 0.87 ×10⁻⁶ cm/s and the “P e” value [2] was over 4.7. The “pred (predicted BBB permeation)” value [2] was “CNS+ (Compounds of high BBB permeation (CNS+) Pe>4.7)” and the inhibition at 20 µM [3] was 40.2 ± 2.89%.
With COc1ccc2[nH]cc(CCNC(=O)c3ccc4cccnc4c3O)c2c1 [Compound 13b, 8-hydroxy-N-(2-(5-methoxy-1H-indol-3-yl)ethyl)quinoline-7-carboxamide] the ORAC [1] was 1.33 ± 0.02 Trolox equivalents, the Papp [2] was 1.12 ± 0.42 ×10⁻⁶ cm/s and the “pred (predicted BBB permeation)” value [2] was “CNS− (Compounds of low BBB permeation (CNS -) Pe<1.8)”. The inhibition at 20 µM [3] was 19.7 ± 2.06%.
In the case of CN(C)CCCN1c2ccccc2Sc2ccccc21 [promazine], the “Pe, Bibl” value [4] is given as 8.8 ×10⁻⁶ cm/s.
With COc1ccc2[nH]cc(CCNCc3ccc4cccc(O)c4n3)c2c1 [Compound 3b, 2-(((2-(5-methoxy-1H-indol-3-yl)ethyl)amino)methyl)quinolin-8-ol] the ORAC [1] was 3.25 ± 0.10 Trolox equivalents, the Papp [5] was 6.61 ± 0.22 ×10⁻⁶ cm/s and the “P e” value [2] was over 4.7. The “pred (predicted BBB permeation)” value [2] was “CNS+ (Compounds of high BBB permeation (CNS+) Pe>4.7)” and the inhibition at 20 µM [3] was 18.2 ± 2.02%.
With O=C(Cc1c[nH]c2ccccc12)NCc1ccc(O)c2ncccc12 [Compound 11a, N-((8-hydroxyquinolin-5-yl)methyl)-2-(1H-indol-3-yl)acetamide] the ORAC [1] was 2.91 ± 0.16 Trolox equivalents, the Papp [2] was 2.82 ± 0.42 ×10⁻⁶ cm/s and the “pred (predicted BBB permeation)” value [2] was “CNS± (Compounds of uncertain BBB permeation (CNS+/ -) 4.7>Pe>1.8)”. For the same compound, the inhibition at 20 µM [3] was 44.7 ± 5.18%.
For O=C(NCCc1c[nH]c2ccc(O)cc12)c1ccc2cccc(O)c2n1 [Compound 6c, 8-hydroxy-N-(2-(5-hydroxy-1H-indol-3-yl)ethyl)quinoline-2-carboxamide], the ORAC [1] was 3.23 ± 0.02 Trolox equivalents, the Papp [2] was 2.96 ± 0.58 ×10⁻⁶ cm/s and the “pred (predicted BBB permeation)” value [2] was “CNS± (Compounds of uncertain BBB permeation (CNS+/ -) 4.7>Pe>1.8)”. The inhibition at 20 µM [3] was 40.3 ± 2.09%, the Cytotoxicity ([6]; 5 μM) was “no cytotoxicity” and the Cytotoxicity ([6]; 10 μM) was “slight toxicity”. The Metal-chelating property [7] was “possess metal-chelating properties”, the “Inflection point, concentration ratio of Cu^2+ to compound” value [7] was 0.5 and the Cytotoxicity [8] was “no significant cytotoxicity”. The “ROS production after pretreatment” value [9] was “reduced ROS production in a dose-dependent manner”.
With O=C(NCCc1c[nH]c2ccccc12)c1ccc2cccnc2c1O [Compound 13a, N-(2-(1H-indol-3-yl)ethyl)-8-hydroxyquinoline-7-carboxamide] the ORAC [1] was 1.06 ± 0.07 Trolox equivalents, the Papp [2] was 3.98 ± 0.45 ×10⁻⁶ cm/s and the “pred (predicted BBB permeation)” value [2] was “CNS± (Compounds of uncertain BBB permeation (CNS+/ -) 4.7>Pe>1.8)”. For the same compound, the inhibition at 20 µM [3] was 47 ± 6.25%.
In the case of O=C(NCc1c[nH]c2ccccc12)c1ccc2cccnc2c1O [Compound 13c, N-((1H-indol-3-yl)methyl) -8-hydroxyquinoline-7-carboxamide], the ORAC [1] is reported as 0.94 ± 0.02 Trolox equivalents, the Papp [2] is reported as 2.65 ± 0.46 ×10⁻⁶ cm/s and the “pred (predicted BBB permeation)” value [2] is reported as “CNS± (Compounds of uncertain BBB permeation (CNS+/ -) 4.7>Pe>1.8)”. The inhibition at 20 µM [3] was 38.6 ± 5.12%.
In the case of CN(CCc1c[nH]c2ccccc12)Cc1ccc2cccc(O)c2n1 [Compound 4, 2-(((2-(1H-indol-3-yl)ethyl)(methyl)amino)methyl)quinolin-8-ol], the ORAC [1] is reported as 2.93 ± 0.15 Trolox equivalents, the Papp [5] is reported as 9.87 ± 0.66 ×10⁻⁶ cm/s and the “P e” value [2] is reported as over 4.7. The “pred (predicted BBB permeation)” value [2] was “CNS+ (Compounds of high BBB permeation (CNS+) Pe>4.7)” and the inhibition at 20 µM [3] was 52.5 ± 6.47%.
In the case of O=C(NCCc1c[nH]c2ccccc12)c1ccc2cccc(O)c2n1 [Compound 6a, N-(2-(1H-indol-3-yl)ethyl)-8-hydroxyquinoline-2-carboxamide], the ORAC [1] is reported as 2.49 ± 0.22 Trolox equivalents, the Papp [2] is reported as 7.71 ± 0.61 ×10⁻⁶ cm/s and the “P e” value [2] is reported as over 4.7. For the same compound, the “pred (predicted BBB permeation)” value [2] was “CNS+ (Compounds of high BBB permeation (CNS+) Pe>4.7)” and the inhibition at 20 µM [3] was 45.45 ± 0.41%.
With Oc1c(I)cc(Cl)c2cccnc12 [CQ, clioquinol, reference compound] the inhibition at 20 µM [3] was 30.8 ± 1.08% and the “Disaggregation of Cu^2+-induced Aβ1-42 aggregation” value (shortened to “Disaggregation”) [10] was “significantly disaggregated”.
With O=C(NCc1c[nH]c2ccccc12)c1ccc2cccc(O)c2n1 [Compound 6d, N-((1H-indol-3-yl)methyl)-8-hydroxyquinoline-2-carboxamide] the ORAC [1] was 2.32 ± 0.17 Trolox equivalents, the Papp [2] was 6.81 ± 1.13 ×10⁻⁶ cm/s and the “P e” value [2] was over 4.7. For the same compound, the “pred (predicted BBB permeation)” value [2] was “CNS+ (Compounds of high BBB permeation (CNS+) Pe>4.7)” and the inhibition at 20 µM [3] was 19.2 ± 5.85%.
With CN(C)CCCN1c2ccccc2Sc2ccc(Cl)cc21 [Chlorpromazinne, chlorpromazine, reference compound] the Papp [2] was 6.63 ± 0.81 ×10⁻⁶ cm/s and the “pred (predicted BBB permeation)” value [2] was “CNS+ (Compounds of high BBB permeation (CNS+) Pe>4.7)”.
In the case of COc1cc(/C=C/C(=O)CC(=O)/C=C/c2ccc(O)c(OC)c2)ccc1O [Curcumin, reference compound], the inhibition at 20 µM [3] is reported as 52.9 ± 6.38%.
For Oc1cccc2ccc(CNCCc3c[nH]c4ccccc34)nc12 [Compound 3a, 2-(((2-(1H-indol-3-yl)ethyl)amino)methyl)quinolin-8-ol], the ORAC [1] was 3.50 ± 0.12 Trolox equivalents, the Papp [5] was 8.08 ± 0.56 ×10⁻⁶ cm/s and the “P e” value [2] was over 4.7. For the same compound, the “pred (predicted BBB permeation)” value [2] was “CNS+ (Compounds of high BBB permeation (CNS+) Pe>4.7)” and the inhibition at 20 µM [3] was 27.1 ± 5.01%.
With COc1ccc2[nH]cc(CCNC(C)=O)c2c1 [Melatonin] the inhibition at 20 µM [3] was 39 ± 9.35%, the “Disaggregation” value [10] was “mild disaggregated effect” and the “Inhibition of Cu^2+-induced Aβ1-42 aggregation” value [10] was “weak inhibitory activity”.
In the case of COc1ccc2[nH]cc(CCNC(=O)c3ccc4cccc(O)c4n3)c2c1 [Compound 6b, 8-hydroxy-N-(2-(5-methoxy-1H-indol-3-yl)ethyl)quinoline-2-carboxamide], the ORAC [1] is reported as 2.76 ± 0.01 Trolox equivalents, the Papp [2] is reported as 6.91 ± 0.92 ×10⁻⁶ cm/s and the “P e” value [2] is reported as over 4.7. For the same compound, the “pred (predicted BBB permeation)” value [2] was “CNS+ (Compounds of high BBB permeation (CNS+) Pe>4.7)”, the inhibition at 20 µM [3] was 63.2 ± 2.02% and the Cytotoxicity ([6]; 5 μM) was “no cytotoxicity”. The Cytotoxicity ([6]; 10 μM) was “slight toxicity”, the “Disaggregation” value [10] was “significantly disaggregated” and the “Inhibition of Cu^2+-induced Aβ1-42 aggregation” value [10] was “distinct inhibitory effect”. The Metal-chelating property [7] was “possess metal-chelating properties”, the “Inflection point, concentration ratio of Cu^2+ to compound” value [7] was 0.5 and the Cytotoxicity [8] was “no significant cytotoxicity”. For the same compound, the “ROS production after pretreatment” value [9] was “reduced ROS production in a dose-dependent manner”.
